Results taken from US4038278A, “4-Aminopyrimidium derivatives and preparation thereof” (Eisai Co., Ltd., priority 1974, dated 1977).
One block for each compound: values may come before it.

Legend:
[1] = test system: acetic acid Writhing syndrome; assay: Anti-acetic acid Writhing test, oral, in mice; assay type: in vivo, mouse (dd strain)
Method: Comparative tests for anti-acetic acid Writhing activity in mice were made to the Compound A of the present invention and 4-amino-pyrimidine-N^1 -phenacylbromide (hereinafter referred to as Compound C), using Aspirin as a control compound. The test compounds were respectively suspended in an of aqueous solution of containing five percent of gum Arabic. Eight male mice of dd strain weighing approximately 20 - 23g were used as the test animals. The mice were made to fast for about 19 hours.
After 50 minutes or 170 minutes of administration of the test compounds, 0.1 ml of 0.7% acetic acid solution per 10 g. of the body weight of the test animal was injected intraperitoneally. Regarding the expansion of the hind paw of the mice induced during 15 minutes after the injection, a number of Writhing syndromes were encountered and recorded. Effects of the respective test compounds against the usual behavior of the mice were also observed. In the above test, 5% gum arabic solution per se was administered to the control animal.
Various doses of the respective compounds were orally administered to eight mice. After 1 or 3 hours of the administration, a anti-acetic acid Writhing test was carried out.

Stress Ulcer (Immersion) = Stress Ulcer (Immersion) at 23-25° C. for 20 hrs; assay type: in vivo, rat (Wistar strain); details: for effect on stress ulcer in words: 300 mg/Kg (p.o.)
Method: (§1) Using rats of Wistar strain as test animals weighing about 150 - 160 g., the anti-ulcer activities were measured in accordance with the conventional manner with respect to the following four (4) items.
i. Stress Ulcer (Immersion) at 23° - 25° C. for 20 hrs.

gastric secretion = assay: Effect on gastric secretion in 4hr. pylorus-ligated rats (intraduodenal); assay type: in vivo, rat (Wistar strain)
Method: as §1
ii. Effect on gastric secretion in 4hr. pylorus-ligated rats. (Intraduodenal administration)

Shay Ulcer = assay: Effect on Shay Ulcer in rats (17hr. pylorus-ligated rats); assay type: in vivo, rat (Wistar strain); details: for Inhibitory % (ulcer index) / Ulcer Index (mm): 300 (mg/μg [sic]); for Inhibitory % (ulcer index) / Ulcer Index (mm) / Inhibitory % (titrable acidity) / Inhibitory % (volume) / Titrable Acidity to pH 7.0 / Vol(ml) 100g B.W.: 17hr pylorus-ligated; for Ulcer Index (mm): Compound A n=2, individual values (0),(84), Compound C n=6, * P<0.05; for Inhibitory % (titrable acidity) / Inhibitory % (volume) / Titrable Acidity to pH 7.0 / Vol(ml) 100g B.W.: dose not given in Table 7; for Vol(ml) 100g B.W.: Compound A n=2, individual values (1.11),(3.29); for inhibitory effect against the appearance of ulcer in words: Tables 6 and 7
Method: as §1
iii. Effect on Shay Ulcer in rats. (Method by 17hr. pylorusligated rats)

[2] = test system: gastric secretion stimulated by carbachol; assay: Effect on gastric secretion stimulated by carbachol in acute gastric fistula rats; assay type: in vivo, rat (Wistar strain); details: FIG. 1
Method: as §1
iv. Effect on gastric secretion in acute gastric fistula rats.
Comparative tests were carried out to measure the effects on gastric secretion stimulated by carbachol and the effects of Compounds A and C on eight rats of Wistar strain. The results are graphically shown in the accompanying FIG. 1.

pH of the test compound = assay type: physicochemical; details: footnote of Table 5
[3] = test system: Carrageenin edema of the hind paw of the rat; assay: Anti-edematic effect, Carrageenin paw edema method, oral, in rats; assay type: in vivo, rat (Wistar strain)
Method: Test animal: For the respective compounds, four male rats of the Wistar strain weighing approximately 150g were used. The test animals were made to fast for approximately 16 hours.
The anti-edematic test is carried out by determining the increase of edema due to the injection of […], in accordance with the paw edema method. [see Winter. C. A. et al; Proc. Soc. exp.
The test compounds were respectively suspended in five percent of aqueous solution of gum Arabic, and the suspensions were orally administered to the rats one hour before the injection of the Carrageenin. Activities were determined by measuring the volume of the hind paw of the rat three hours after the administration of the Carrageenin.

stomach mucosa = assay: Degree of gastric trouble (visible observation of stomach mucosa); assay type: in vivo, rat (Wistar strain)
Text: 2. Degree of gastric trouble
The rats used in above test of anti-edematic effects were slaughtered, and their stomaches were visibly observed in accordance with the under-mentioned bases. Measurement values were decided by summing up the respective data of 4 tests of each group.
Visible observation of the stomach mucosa
No abnormality is recognized
Slight edema, congestion or slight erosion
Scattered or limitted erosion and spotted
Heavy erosion, linear bleeding or enlarged

[4] = 3hr, 160 mg/Kg p.o., ** P<0.01 for Compound C
[5] = 150 mg/Kg p.o., * P<0.05 for Compound C
[6] = 300 mg/Kg p.o., ** P<0.01 for Compound A, * P<0.05 for Compound C
[7] = 150 (mg/μg [sic]) intraduodenal
[8] = 300 (mg/μg [sic]) intraduodenal

- pH of the test compound (pH of the test compound): 5.8
Compound: Nc1cc[n+](CC(=O)c2ccccc2)cn1 [Compound C, 4-amino-pyrimidine-N^1-phenacylbromide]
- % of Protection ([1]; 1hr, 20 mg/Kg p.o.): 8%
- No. of Writhing Syndrome (m±S.E.) ([1]; 1hr, 20 mg/Kg p.o.): 36.9 ± 3.6
- % of Protection ([1]; 1hr, 40 mg/Kg p.o.): 13%
- No. of Writhing Syndrome (m±S.E.) ([1]; 1hr, 40 mg/Kg p.o.): 34.9 ± 7.3
- % of Protection ([1]; 1hr, 80 mg/Kg p.o.): -12%
- No. of Writhing Syndrome (m±S.E.) ([1]; 1hr, 80 mg/Kg p.o.): 45.3 ± 1.7
- No. of Writhing Syndrome (m±S.E.) ([1]; 1hr, 160 mg/Kg p.o.): 29.9 ± 5.1
- % of Protection ([1]; 1hr, 160 mg/Kg p.o., * P<0.05): 26%
- No. of Writhing Syndrome (m±S.E.) ([1]; 1hr, 320 mg/Kg p.o.): 15.9 ± 5.5
- % of Protection ([1]; 1hr, 320 mg/Kg p.o., ** P<0.01): 61%
- % of Protection ([1]; 3hr, 20 mg/Kg p.o.): -35%
- No. of Writhing Syndrome (m±S.E.) ([1]; 3hr, 20 mg/Kg p.o.): 41.4 ± 5.0
- % of Protection ([1]; 3hr, 40 mg/Kg p.o.): 27%
- No. of Writhing Syndrome (m±S.E.) ([1]; 3hr, 40 mg/Kg p.o.): 22.3 ± 5.3
- % of Protection ([1]; 3hr, 80 mg/Kg p.o.): -19%
- No. of Writhing Syndrome (m±S.E.) ([1]; 3hr, 80 mg/Kg p.o.): 36.4 ± 3.8
- No. of Writhing Syndrome (m±S.E.) ([1]; 3hr, 160 mg/Kg p.o.): 11.0 ± 3.3
- % of Protection [1, 4]: 64%
- No. of Writhing Syndrome (m±S.E.) ([1]; 3hr, 320 mg/Kg p.o.): 12.9 ± 4.6
- % of Protection ([1]; 3hr, 320 mg/Kg p.o., ** P<0.01): 58%
- Inhibitory % (ulcer index) (Stress Ulcer (Immersion); 150 mg/Kg p.o.): 23.4%
- Ulcer Index (mm) (Stress Ulcer (Immersion); [5]): 53.1 ± 5.8 mm
- effect on stress ulcer in words (Stress Ulcer (Immersion)): effective
- Inhibitory % (ulcer index) (Stress Ulcer (Immersion); 300 mg/Kg p.o.): 66.2%
- Ulcer Index (mm) (Stress Ulcer (Immersion); [6]): 23 ± 6.3 mm
- Inhibitory % (titrable acidity) (gastric secretion; [7]): 69.7%
- Inhibitory % (volume) (gastric secretion; [7]): 53.5%
- Titrable acidity to PH 7.0 (gastric secretion; [7]): 57.0 ± 22.4 μEq/100g B.W.
- Vol/100 g B.W.(ml) (gastric secretion; [7]): 0.94 ± 0.20 ml/100 g B.W.
- Inhibitory % (titrable acidity) (gastric secretion; [8]): 88.2%
- Inhibitory % (volume) (gastric secretion; [8]): 69.3%
- Titrable acidity to PH 7.0 (gastric secretion; [8]): 22.2 ± 7.6 μEq/100g B.W.
- Vol/100 g B.W.(ml) (gastric secretion; [8]): 0.62 ± 0.08 ml/100 g B.W.
- Inhibitory % (ulcer index) (Shay Ulcer): 64.8%
- Ulcer Index (mm) (Shay Ulcer): 19 ± 7 mm
- Inhibitory % (titrable acidity) (Shay Ulcer): -19.3%
- Inhibitory % (volume) (Shay Ulcer): 34.5%
- Titrable Acidity to pH 7.0 (Shay Ulcer): 414.8 ± 83.0 μ Eq/100g B.W.
- Vol(ml) 100g B.W. (Shay Ulcer): 3.14 ± 0.43 ml/100g B.W.
- inhibitory effect against the appearance of ulcer in words (Shay Ulcer): outstanding inhibitory effects
- inhibitory effect to Maximum Response [2]: about 35%

- Degree of gastric trouble (stomach mucosa; 100 mg/kg p.o., sum of scores (0-3) of 4 rats): 2
- pH of the test compound (pH of the test compound): 6.3
Compound: COc1ccc(C(=O)C[n+]2ccc(N)nc2)cc1 [Compound A, 4-aminopyrimidine N^1-(p-methoxyphenacyl)bromide]
- anti-edematic / anti-inflammatory effect in words ([3]; 100 mg/Kg p.o.): equal to, or more than that of the Control compound
- Anti-edematic ratio (%) ([3]; 100 mg/kg p.o., rats, 3 hours after Carrageenin): 50.0%
- Comparison with Control Compound (anti-edematic ratio) ([3]; 100 mg/kg p.o., Control compound (Aspirin) = 100): 140
- degree of gastric trouble in words (stomach mucosa; 100 mg/Kg p.o.): extremely less than that of the Control compound
- No. of Writhing Syndrome (m±S.E.) ([1]; 1hr, 20 mg/Kg p.o.): 41.4 ± 5.6
- % of Protection ([1]; 1hr, 40 mg/Kg p.o.): 18%
- No. of Writhing Syndrome (m±S.E.) ([1]; 1hr, 40 mg/Kg p.o.): 33.1 ± 3.7
- % of Protection ([1]; 1hr, 80 mg/Kg p.o.): -15%
- No. of Writhing Syndrome (m±S.E.) ([1]; 1hr, 80 mg/Kg p.o.): 46.3 ± 3.6
- No. of Writhing Syndrome (m±S.E.) ([1]; 1hr, 160 mg/Kg p.o.): 29.4 ± 5.1
- % of Protection ([1]; 1hr, 160 mg/Kg p.o., * P<0.05): 27%
- No. of Writhing Syndrome (m±S.E.) ([1]; 1hr, 320 mg/Kg p.o.): 17.1 ± 4.6
- % of Protection ([1]; 1hr, 320 mg/Kg p.o., ** P<0.01): 58%
- % of Protection ([1]; 3hr, 20 mg/Kg p.o.): -13%
- No. of Writhing Syndrome (m±S.E.) ([1]; 3hr, 20 mg/Kg p.o.): 34.6 ± 5.4
- % of Protection ([1]; 3hr, 40 mg/Kg p.o.): 43%
- No. of Writhing Syndrome (m±S.E.) ([1]; 3hr, 40 mg/Kg p.o.): 17.6 ± 4.8
- % of Protection ([1]; 3hr, 80 mg/Kg p.o.): 25%
- No. of Writhing Syndrome (m±S.E.) ([1]; 3hr, 80 mg/Kg p.o.): 23.1 ± 6.6
- No. of Writhing Syndrome (m±S.E.) ([1]; 3hr, 160 mg/Kg p.o.): 21.8 ± 4.0
- % of Protection [1, 4]: 29%
- No. of Writhing Syndrome (m±S.E.) ([1]; 3hr, 320 mg/Kg p.o.): 3.8 ± 2.7
- % of Protection ([1]; 3hr, 320 mg/Kg p.o., ** P<0.01): 88%
- Inhibitory % (ulcer index) (Stress Ulcer (Immersion); 150 mg/Kg p.o.): 28.1%
- Ulcer Index (mm) (Stress Ulcer (Immersion); [5]): 37.1 ± 5.9 mm
- effect on stress ulcer in words (Stress Ulcer (Immersion)): effective
- Inhibitory % (ulcer index) (Stress Ulcer (Immersion); 300 mg/Kg p.o.): 70.3%
- Ulcer Index (mm) (Stress Ulcer (Immersion); [6]): 15.3 ± 6.1 mm
- Inhibitory % (titrable acidity) (gastric secretion; [7]): 92.4%
- Inhibitory % (volume) (gastric secretion; [7]): 73.3%
- Titrable acidity to PH 7.0 (gastric secretion; [7]): 14.4 ± 4.2 μEq/100g B.W.
- Vol/100 g B.W.(ml) (gastric secretion; [7]): 0.5 ± 0.06 ml/100 g B.W.
- Inhibitory % (titrable acidity) (gastric secretion; [8]): 96.4%
- Inhibitory % (volume) (gastric secretion; [8]): 64.4%
- Titrable acidity to PH 7.0 (gastric secretion; [8]): 6.8 ± 3.4 μEq/100g B.W.
- Vol/100 g B.W.(ml) (gastric secretion; [8]): 0.72 ± 0.24 ml/100 g B.W.
- Inhibitory % (ulcer index) (Shay Ulcer): 23.4%
- Ulcer Index (mm) (Shay Ulcer): 42 mm
- Inhibitory % (titrable acidity) (Shay Ulcer): 45.9%
- Inhibitory % (volume) (Shay Ulcer): 54.1%
- Titrable Acidity to pH 7.0 (Shay Ulcer): 188.2 ± 72.0 μ Eq/100g B.W.
- Vol(ml) 100g B.W. (Shay Ulcer): 2.20 ml/100g B.W.
- inhibitory effect against the appearance of ulcer in words (Shay Ulcer): outstanding inhibitory effects

Compound: CC(C)[N+](C)(CCOC(=O)C1c2ccccc2Oc2ccccc21)C(C)C [Propantheline, reference compound]
- Inhibitory % (ulcer index) (Stress Ulcer (Immersion); 15 mg/Kg p.o.): 37.0%
- Ulcer Index (mm) (Stress Ulcer (Immersion); 15 mg/Kg p.o.): 43.8 ± 12.9 mm
- Inhibitory % (ulcer index) (Stress Ulcer (Immersion); 30 mg/Kg p.o.): 61.4%
- Ulcer Index (mm) (Stress Ulcer (Immersion); 30 mg/Kg p.o., ** P<0.01): 26.8 ± 7.4 mm
